Assay results: ChEMBL document CHEMBL5360611, “Mycobacterium tuberculosis PptT Inhibitors Based on Heterocyclic Replacements of Amidinoureas” (ACS Med Chem Lett, 2023)
≈ marks a conversion by molar mass, not a printed value.

Key:
[1] = target: T1, 4'-phosphopantetheinyl transferase PptT (Mycobacterium tuberculosis, UniProt O33336); experiment: Inhibition of Mycobacterium tuberculosis H37Rv PptT by fluorescence polarization assay
T1 sequence (O33336 whole entry): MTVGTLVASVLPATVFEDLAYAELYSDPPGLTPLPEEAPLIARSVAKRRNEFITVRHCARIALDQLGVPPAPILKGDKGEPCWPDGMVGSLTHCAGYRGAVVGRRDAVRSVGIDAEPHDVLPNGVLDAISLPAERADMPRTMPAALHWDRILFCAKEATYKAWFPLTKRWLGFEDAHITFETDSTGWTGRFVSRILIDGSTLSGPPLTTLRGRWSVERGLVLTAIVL

[2] = target: T1, 4'-phosphopantetheinyl transferase PptT; experiment: Inhibition of Mycobacterium tuberculosis H37Rv PptT by BpsA-coupled assay
[3] = system: Mycobacterium tuberculosis; experiment: Antimycobacterial activity against Mycobacterium tuberculosis H37Rv assessed as bacterial growth inhibition; assay type: functional
[4] = Cytotoxicity against human THP-1 cells; assay type: toxicity, cell-based; details: read-out: TC50 (the source's name)
[5] = target: T1, 4'-phosphopantetheinyl transferase PptT; experiment: Inhibition of Mycobacterium tuberculosis PptT by fluorescence polarization assay
[6] = target: T1, 4'-phosphopantetheinyl transferase PptT; experiment: Inhibition of his-tagged Mycobacterium tuberculosis PptT expressed in Escherichia coli BL21 cells by BpsA-coupled assay
[7] = target: Voltage-gated inwardly rectifying potassium channel KCNH2 (Homo sapiens, UniProt Q12809); experiment: Inhibition of hERG transfected in HEK cells by automatic patch clamp analysis; assay type: toxicity, cell-based
Sequence of Voltage-gated inwardly rectifying potassium channel KCNH2 (Q12809 whole entry): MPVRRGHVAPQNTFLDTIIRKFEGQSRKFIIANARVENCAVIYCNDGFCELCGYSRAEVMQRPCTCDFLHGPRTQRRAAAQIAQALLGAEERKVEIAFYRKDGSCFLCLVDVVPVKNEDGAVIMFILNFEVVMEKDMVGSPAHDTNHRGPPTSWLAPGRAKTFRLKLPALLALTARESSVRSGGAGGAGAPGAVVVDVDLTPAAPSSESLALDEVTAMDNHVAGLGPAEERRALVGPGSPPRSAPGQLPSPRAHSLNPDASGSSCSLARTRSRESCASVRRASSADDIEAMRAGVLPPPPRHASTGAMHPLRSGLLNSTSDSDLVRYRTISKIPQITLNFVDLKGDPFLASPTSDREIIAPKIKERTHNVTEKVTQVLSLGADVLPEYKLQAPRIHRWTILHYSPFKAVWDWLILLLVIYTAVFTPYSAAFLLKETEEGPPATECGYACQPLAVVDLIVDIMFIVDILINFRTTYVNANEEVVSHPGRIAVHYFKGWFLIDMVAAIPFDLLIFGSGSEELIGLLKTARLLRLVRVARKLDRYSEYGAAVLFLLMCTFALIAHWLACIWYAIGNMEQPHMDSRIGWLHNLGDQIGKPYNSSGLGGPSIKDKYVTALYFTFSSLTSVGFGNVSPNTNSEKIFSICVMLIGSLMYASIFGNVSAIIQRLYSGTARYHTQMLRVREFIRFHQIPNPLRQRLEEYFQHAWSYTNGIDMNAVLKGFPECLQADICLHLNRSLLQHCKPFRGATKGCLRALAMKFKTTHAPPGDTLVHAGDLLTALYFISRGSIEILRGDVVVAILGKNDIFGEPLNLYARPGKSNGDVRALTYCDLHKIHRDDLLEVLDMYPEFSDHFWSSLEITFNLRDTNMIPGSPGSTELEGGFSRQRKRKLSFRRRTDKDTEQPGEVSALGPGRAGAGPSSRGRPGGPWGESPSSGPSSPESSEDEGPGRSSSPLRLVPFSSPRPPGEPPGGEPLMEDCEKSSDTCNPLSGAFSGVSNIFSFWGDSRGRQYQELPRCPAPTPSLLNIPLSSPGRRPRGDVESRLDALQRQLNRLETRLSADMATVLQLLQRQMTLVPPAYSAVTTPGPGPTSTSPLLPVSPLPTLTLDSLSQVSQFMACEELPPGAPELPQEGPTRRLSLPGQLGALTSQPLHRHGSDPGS

[8] = Cytotoxicity against human HepG2 cells; assay type: toxicity, cell-based; details: read-out: TC50 (the source's name)
[9] = Permeability of compound in human Caco-2 cells; assay type: ADME, cell-based; details: read-out: permeability
[10] = Lipophilicity, logD of compound at pH 7.4; assay type: physicochemical; details: buffer
[11] = Solubility of compound; assay type: physicochemical
[12] = target: Voltage-dependent L-type calcium channel subunit alpha-1C (Homo sapiens, UniProt Q13936); experiment: Inhibition of human Cav1.2 cardiac ion channel transfected in HEK cells by automatic patch clamp analysis; assay type: toxicity, cell-based
[13] = target: Sodium channel protein type 5 subunit alpha (Homo sapiens, UniProt Q14524); experiment: Inhibition of human Nav1.5 channel ion channel transfected in HEK cells by automatic patch clamp analysis; assay type: toxicity, cell-based
Sequence of Sodium channel protein type 5 subunit alpha (Q14524 whole entry): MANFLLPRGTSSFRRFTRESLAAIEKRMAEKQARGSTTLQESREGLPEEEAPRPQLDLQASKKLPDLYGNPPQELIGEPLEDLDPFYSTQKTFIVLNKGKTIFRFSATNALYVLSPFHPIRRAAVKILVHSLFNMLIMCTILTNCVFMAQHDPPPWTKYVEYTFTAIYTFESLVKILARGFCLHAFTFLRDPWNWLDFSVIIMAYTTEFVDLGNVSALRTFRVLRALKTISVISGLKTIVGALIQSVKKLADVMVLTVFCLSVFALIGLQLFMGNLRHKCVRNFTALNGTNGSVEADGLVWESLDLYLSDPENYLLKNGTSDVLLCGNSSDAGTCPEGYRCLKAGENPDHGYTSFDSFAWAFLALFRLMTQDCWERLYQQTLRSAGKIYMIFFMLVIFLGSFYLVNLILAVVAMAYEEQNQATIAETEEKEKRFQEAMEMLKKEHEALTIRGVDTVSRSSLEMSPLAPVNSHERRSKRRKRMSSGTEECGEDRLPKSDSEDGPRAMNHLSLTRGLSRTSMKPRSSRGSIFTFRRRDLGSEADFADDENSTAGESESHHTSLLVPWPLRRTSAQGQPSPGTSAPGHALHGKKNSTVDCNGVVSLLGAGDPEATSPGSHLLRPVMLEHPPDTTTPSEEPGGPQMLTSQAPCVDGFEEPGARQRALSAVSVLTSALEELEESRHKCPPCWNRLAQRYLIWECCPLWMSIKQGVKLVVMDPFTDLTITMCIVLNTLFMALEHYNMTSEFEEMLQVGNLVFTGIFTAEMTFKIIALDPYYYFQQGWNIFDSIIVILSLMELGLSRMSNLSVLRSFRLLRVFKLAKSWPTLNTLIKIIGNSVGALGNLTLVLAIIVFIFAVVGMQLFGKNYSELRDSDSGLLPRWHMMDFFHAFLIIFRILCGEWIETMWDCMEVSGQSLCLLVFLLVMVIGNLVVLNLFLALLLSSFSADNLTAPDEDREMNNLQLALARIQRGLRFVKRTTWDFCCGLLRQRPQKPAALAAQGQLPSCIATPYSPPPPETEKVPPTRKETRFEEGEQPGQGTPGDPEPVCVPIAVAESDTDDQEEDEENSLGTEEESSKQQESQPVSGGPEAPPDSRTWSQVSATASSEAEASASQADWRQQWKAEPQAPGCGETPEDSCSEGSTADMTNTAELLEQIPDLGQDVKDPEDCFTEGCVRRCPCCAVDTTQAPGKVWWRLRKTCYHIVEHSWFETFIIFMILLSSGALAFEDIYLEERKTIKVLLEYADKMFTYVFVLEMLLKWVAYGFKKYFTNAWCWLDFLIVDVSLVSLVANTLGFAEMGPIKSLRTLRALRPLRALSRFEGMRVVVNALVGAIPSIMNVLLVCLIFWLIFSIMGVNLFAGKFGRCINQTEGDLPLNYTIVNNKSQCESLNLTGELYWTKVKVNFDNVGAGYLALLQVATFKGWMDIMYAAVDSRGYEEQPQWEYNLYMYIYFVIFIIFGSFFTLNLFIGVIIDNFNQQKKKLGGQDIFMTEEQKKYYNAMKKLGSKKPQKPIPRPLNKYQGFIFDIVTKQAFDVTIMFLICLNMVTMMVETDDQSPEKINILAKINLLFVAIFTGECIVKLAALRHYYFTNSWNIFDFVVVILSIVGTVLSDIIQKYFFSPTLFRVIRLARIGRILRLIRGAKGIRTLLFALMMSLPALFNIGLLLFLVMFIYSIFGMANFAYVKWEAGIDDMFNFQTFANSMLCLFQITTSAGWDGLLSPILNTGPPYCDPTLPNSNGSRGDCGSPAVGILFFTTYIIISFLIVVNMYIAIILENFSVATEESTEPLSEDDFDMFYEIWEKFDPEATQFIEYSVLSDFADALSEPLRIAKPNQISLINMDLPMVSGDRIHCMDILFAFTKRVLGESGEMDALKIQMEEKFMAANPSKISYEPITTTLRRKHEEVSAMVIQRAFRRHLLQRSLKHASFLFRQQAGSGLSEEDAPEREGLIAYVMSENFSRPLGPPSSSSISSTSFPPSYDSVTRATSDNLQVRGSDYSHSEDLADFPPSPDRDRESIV

CCNc1nc(Nc2c(CC)cccc2CC)ccc1OC
IC50 [1]: > 100 µM | IC50 [2]: 87 µM | MIC90 [3]: 62 µM (≈ 18.6 µg/mL)

CCc1cccc(CC)c1Nc1cccc(NCC(C)C)n1
IC50 [1]: > 100 µM | IC50 [2]: > 100 µM | MIC90 [3]: 17 µM (≈ 5.06 µg/mL)

CCc1cccc(CC)c1/N=C1\CN(CC)C(=N)N1
IC50 [2]: 16 µM

C=C(NCC)NC(=O)Nc1c(CC)cccc1CC
CC50 [4]: > 30 µM | IC50 [5]: 0.23 µM | IC50 [6]: 2.3 µM | IC50 [7]: > 30 µM | CC50 [8]: > 30 µM | Papp [9]: 4 ×10⁻⁶ cm/s | logD [10]: 1.09 | solubility [11]: > 1000 µg/mL | IC50 [12]: 8.4 µM | IC50 [13]: 3.8 µM | MIC90 [3]: 3.1 µM (≈ 0.81 µg/mL)

CCNc1cc(C)cc(Nc2c(CC)cccc2CC)n1
IC50 [2]: 6.4 µM | MIC90 [3]: 22 µM (≈ 6.24 µg/mL)

CCNc1ccc(C(F)(F)F)c(Nc2c(CC)cccc2CC)n1
IC50 [7]: > 30 µM | IC50 [1]: > 100 µM | IC50 [2]: 30 µM | IC50 [12]: 15 µM | IC50 [13]: 14 µM | MIC90 [3]: 43 µM (≈ 14.5 µg/mL)

CCc1cccc(CC)c1Nc1cccc(NC)n1
IC50 [7]: 7.5 µM | IC50 [2]: 20 µM | IC50 [12]: < 3 µM | IC50 [13]: 3.8 µM | MIC90 [3]: 42 µM (≈ 10.7 µg/mL)

CCNc1cccc(Nc2c(CC(F)(F)F)cccc2CC(F)(F)F)n1
IC50 [1]: 1.3 µM | IC50 [2]: > 100 µM | MIC90 [3]: > 100 µM

CCNc1cccc(Nc2c(C(C)C)cccc2C(C)C)n1
IC50 [1]: > 100 µM | MIC90 [3]: > 100 µM

CCc1cccc(CC)c1Nc1cccc(NC(C)C)n1
IC50 [1]: > 100 µM | IC50 [2]: > 100 µM | MIC90 [3]: 32 µM (≈ 9.07 µg/mL)

CCNC1=N/C(=N/c2c(Cl)cccc2Cl)CN1
IC50 [7]: > 30 µM | IC50 [12]: > 30 µM | IC50 [13]: > 30 µM

CCNc1ccc(C)c(Nc2c(CC)cccc2CC)n1
IC50 [2]: 1.8 µM | MIC90 [3]: 55 µM (≈ 15.6 µg/mL)

CCNc1ccc(Cl)c(Nc2c(CC)cccc2CC)n1
IC50 [2]: > 100 µM | MIC90 [3]: > 100 µM

CCNc1cccc(Nc2c(CC)cc(C(=O)NC)cc2CC)n1
IC50 [1]: 3.3 µM | MIC90 [3]: 69 µM (≈ 22.5 µg/mL)

CCc1cccc(CC)c1/N=C1\CNC(=N)N1CC
IC50 [2]: 84 µM

CCNc1cccc(Nc2c(CC)cc(S(=O)(=O)NCC)cc2CC)n1
IC50 [1]: 1 µM | MIC90 [3]: > 100 µM

CCc1cccc(CC)c1Nc1cccc(NC(C)=O)n1
IC50 [1]: > 100 µM | IC50 [2]: > 100 µM | MIC90 [3]: 62 µM (≈ 17.6 µg/mL)

CCNc1ccc(F)c(Nc2c(CC)cccc2CC)n1
IC50 [2]: 12 µM | MIC90 [3]: > 100 µM

CCNc1nc(Nc2c(CC)cccc2CC)ccc1F
IC50 [2]: 7.2 µM | MIC90 [3]: > 100 µM

CCNc1cccc(Nc2c(CC)cccc2CC)n1
IC50 [7]: 11 µM | IC50 [1]: 0.71 µM | IC50 [2]: 3.3 µM | IC50 [12]: 8.1 µM | IC50 [13]: 6.9 µM | MIC90 [3]: 42 µM (≈ 11.3 µg/mL)

CCNc1nc(Nc2c(CC)cccc2CC)ccc1C
IC50 [2]: 23 µM | MIC90 [3]: 54 µM (≈ 15.3 µg/mL)

CCNc1cccc(Nc2c(C3CC3)cccc2C2CC2)n1
IC50 [2]: 8.4 µM | MIC90 [3]: 22 µM (≈ 6.46 µg/mL)

CCNc1cc(OC)cc(Nc2c(CC)cccc2CC)n1
IC50 [7]: 5.7 µM | IC50 [1]: 5 µM | IC50 [2]: 0.72 µM | IC50 [12]: 3.4 µM | IC50 [13]: 3.7 µM | MIC90 [3]: 16 µM (≈ 4.79 µg/mL)
